pIC50: −log10 of the molar value. Several values for one entry are separate records, joined by “and”; a condition that tells them apart may be missing. Equal entries are not always repeated.
How the values were obtained:
Type in all cases: functional
[1] = molecular target: Protein translocase subunit SecA (Escherichia coli (strain K12), UniProt P10408); experiment: Assay to Identify E. coli SecA ATPase Inhibitors
[2] = molecular target: Lysine--tRNA ligase (Plasmodium falciparum (isolate 3D7), UniProt Q8IDJ8); experiment: Pf-KRS-1 (Lysyl-RNA Synthetase-1, KRS-1, cytosolic KRS) from Plasmodium falciparum. Inhibitor assay, 384 well plate, luminescence read.
Lysine--tRNA ligase, sequence (Q8IDJ8 whole entry): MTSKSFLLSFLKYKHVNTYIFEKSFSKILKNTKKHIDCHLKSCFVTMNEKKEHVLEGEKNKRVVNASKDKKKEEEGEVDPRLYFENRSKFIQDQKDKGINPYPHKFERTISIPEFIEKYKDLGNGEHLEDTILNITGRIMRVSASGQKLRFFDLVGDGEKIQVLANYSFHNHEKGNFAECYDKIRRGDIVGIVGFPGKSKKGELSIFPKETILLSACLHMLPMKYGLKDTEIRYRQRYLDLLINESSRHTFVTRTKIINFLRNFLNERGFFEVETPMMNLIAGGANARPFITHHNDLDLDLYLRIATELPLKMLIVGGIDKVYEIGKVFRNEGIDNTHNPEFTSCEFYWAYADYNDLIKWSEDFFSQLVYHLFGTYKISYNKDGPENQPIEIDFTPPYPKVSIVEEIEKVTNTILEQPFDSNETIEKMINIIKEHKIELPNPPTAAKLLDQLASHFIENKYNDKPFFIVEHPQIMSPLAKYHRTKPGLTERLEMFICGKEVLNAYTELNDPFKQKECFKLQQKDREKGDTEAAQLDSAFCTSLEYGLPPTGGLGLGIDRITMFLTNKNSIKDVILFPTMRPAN

[3] = molecular target: T1, Ubiquitin-activating enzyme e1, putative (Leishmania donovani (strain BPK282A1), UniProt E9BSI1); experiment: Leishmania donovani Ubiquitin Activating Enzyme (LdE1)
T1 sequence (E9BSI1 whole entry): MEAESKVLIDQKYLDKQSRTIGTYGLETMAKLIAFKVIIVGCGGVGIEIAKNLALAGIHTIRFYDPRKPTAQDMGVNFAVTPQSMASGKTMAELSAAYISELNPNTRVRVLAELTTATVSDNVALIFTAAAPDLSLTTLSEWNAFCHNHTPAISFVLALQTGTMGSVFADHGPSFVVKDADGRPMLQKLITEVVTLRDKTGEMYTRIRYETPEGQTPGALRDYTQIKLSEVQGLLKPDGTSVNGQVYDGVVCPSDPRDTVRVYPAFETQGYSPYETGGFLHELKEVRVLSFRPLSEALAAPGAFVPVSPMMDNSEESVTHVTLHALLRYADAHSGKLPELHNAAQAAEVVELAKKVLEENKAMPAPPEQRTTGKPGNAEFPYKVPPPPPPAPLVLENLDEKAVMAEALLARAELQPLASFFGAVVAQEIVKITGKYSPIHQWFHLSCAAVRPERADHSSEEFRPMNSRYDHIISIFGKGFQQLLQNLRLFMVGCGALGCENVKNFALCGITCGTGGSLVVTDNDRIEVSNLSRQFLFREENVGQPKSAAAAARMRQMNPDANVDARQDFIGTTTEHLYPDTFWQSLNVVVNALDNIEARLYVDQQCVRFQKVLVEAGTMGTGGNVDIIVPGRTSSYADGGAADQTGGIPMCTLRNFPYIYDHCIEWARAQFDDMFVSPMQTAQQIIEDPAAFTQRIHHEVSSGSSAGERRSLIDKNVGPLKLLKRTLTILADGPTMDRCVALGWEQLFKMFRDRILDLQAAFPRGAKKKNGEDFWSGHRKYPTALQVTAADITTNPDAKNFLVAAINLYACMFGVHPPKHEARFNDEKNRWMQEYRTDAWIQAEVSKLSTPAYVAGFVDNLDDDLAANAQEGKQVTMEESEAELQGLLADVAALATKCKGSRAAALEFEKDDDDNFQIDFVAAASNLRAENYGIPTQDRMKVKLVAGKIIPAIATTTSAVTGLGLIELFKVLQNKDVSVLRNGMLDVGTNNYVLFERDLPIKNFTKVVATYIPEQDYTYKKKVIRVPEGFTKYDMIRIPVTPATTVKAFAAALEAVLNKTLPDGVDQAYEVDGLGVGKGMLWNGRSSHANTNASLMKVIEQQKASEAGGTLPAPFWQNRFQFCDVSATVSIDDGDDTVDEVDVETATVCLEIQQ

[4] = molecular target: T2, Histidine--tRNA ligase (Trypanosoma cruzi (strain CL Brener), UniProt Q4DA54); experiment: Trypanosoma cruzi histidyl tRNA synthetase (Tc-HisRS)
T2 sequence (Q4DA54 whole entry): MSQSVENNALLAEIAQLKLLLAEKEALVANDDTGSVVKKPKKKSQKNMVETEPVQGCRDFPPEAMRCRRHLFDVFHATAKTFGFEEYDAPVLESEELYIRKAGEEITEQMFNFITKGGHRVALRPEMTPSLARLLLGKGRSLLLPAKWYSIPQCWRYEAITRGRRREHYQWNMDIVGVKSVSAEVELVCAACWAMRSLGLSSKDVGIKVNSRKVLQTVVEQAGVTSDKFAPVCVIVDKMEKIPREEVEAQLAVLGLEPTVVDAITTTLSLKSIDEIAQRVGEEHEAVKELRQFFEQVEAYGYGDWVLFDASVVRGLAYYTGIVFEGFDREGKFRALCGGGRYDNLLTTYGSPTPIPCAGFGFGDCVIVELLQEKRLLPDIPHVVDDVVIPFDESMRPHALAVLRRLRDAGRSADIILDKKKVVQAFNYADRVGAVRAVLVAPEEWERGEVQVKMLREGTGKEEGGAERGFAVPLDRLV

[5] = molecular target: T3, Histidine--tRNA ligase (Leishmania infantum, UniProt A4I591); experiment: Leishmania infantum Histidine tRNA synthetase (LdHisRS)
T3 sequence (A4I591 whole entry): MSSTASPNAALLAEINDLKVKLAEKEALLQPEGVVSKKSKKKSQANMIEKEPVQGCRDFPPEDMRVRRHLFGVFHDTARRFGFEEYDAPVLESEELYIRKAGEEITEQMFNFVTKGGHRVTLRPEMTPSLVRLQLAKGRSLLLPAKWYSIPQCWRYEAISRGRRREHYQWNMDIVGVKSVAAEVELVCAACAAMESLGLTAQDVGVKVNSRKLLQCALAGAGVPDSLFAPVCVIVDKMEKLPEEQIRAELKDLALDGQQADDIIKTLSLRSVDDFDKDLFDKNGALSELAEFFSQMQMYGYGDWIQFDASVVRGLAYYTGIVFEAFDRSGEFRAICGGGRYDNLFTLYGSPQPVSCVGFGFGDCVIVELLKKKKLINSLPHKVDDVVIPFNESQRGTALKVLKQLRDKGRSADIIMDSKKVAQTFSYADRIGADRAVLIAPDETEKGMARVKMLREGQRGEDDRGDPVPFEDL

[6] = molecular target: ClpP1P2 (Mycobacterium tuberculosis (strain ATCC 25618 / H37Rv), UniProt P9WPC3+P9WPC5); experiment: in vitro assay to detect presence of AMC directly proportional to the activity of ClpP1P2. GHDDI collaboration.
ClpP1P2, sequence (P9WPC5 whole entry): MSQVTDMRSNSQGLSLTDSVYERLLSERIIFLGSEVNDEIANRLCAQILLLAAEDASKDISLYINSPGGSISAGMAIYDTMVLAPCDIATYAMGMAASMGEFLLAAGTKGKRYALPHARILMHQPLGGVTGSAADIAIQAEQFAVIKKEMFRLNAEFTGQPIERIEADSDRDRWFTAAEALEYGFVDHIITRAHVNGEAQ
ClpP1P2, sequence (P9WPC3 whole entry): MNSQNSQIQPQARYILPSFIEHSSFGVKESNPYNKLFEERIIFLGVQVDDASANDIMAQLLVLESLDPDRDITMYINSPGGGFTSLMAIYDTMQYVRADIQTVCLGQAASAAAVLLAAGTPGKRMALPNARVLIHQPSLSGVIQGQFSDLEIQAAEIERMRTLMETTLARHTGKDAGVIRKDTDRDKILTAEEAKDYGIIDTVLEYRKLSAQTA

[7] = molecular target: T4, Shiga toxin 2 (Escherichia coli O157:H7, UniProt P09385+P09386); experiment: E. coli 0.157:H7 Shiga Toxin SOP - stx2 screening assay
T4 sequence (P09385 whole entry): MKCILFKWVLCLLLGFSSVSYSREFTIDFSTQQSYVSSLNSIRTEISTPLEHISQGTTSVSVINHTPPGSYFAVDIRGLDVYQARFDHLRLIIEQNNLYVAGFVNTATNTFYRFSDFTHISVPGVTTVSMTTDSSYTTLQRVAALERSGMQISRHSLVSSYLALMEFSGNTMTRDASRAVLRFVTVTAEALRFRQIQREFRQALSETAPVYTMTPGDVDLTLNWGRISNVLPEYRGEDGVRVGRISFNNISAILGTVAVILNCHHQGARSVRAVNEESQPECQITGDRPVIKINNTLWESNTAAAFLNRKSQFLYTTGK
T4 sequence (P09386 whole entry): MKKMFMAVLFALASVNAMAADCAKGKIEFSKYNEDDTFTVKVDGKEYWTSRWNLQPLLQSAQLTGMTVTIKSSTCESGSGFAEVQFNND

Protein translocase subunit SecA, sequence (P10408 whole entry): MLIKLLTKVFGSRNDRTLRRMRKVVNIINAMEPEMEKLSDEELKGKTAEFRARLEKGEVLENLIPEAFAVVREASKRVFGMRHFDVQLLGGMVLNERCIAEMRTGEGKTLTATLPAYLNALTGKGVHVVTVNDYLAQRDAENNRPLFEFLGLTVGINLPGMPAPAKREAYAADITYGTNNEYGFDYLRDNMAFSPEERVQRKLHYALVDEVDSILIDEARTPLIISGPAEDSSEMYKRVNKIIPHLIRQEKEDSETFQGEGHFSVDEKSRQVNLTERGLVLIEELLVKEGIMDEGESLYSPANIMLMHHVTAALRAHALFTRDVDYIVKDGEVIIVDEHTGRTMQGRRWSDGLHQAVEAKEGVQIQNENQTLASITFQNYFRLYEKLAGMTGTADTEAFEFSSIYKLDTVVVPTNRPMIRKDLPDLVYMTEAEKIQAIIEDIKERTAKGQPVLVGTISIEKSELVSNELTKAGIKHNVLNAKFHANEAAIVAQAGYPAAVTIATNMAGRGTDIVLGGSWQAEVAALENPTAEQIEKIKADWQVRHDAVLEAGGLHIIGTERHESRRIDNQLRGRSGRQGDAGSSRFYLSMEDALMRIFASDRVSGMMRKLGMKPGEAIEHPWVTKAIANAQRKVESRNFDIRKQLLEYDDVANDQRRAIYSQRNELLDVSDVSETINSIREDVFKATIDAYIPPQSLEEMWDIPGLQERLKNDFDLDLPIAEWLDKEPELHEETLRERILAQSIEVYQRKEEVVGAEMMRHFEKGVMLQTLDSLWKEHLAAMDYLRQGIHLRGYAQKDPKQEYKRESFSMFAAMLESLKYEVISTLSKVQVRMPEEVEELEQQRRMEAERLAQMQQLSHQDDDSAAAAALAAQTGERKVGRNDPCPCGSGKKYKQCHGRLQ

SMILES	pIC50 [1]	pIC50 [2]	pIC50 [3]	pIC50 [4]	pIC50 [5]	pIC50 [6]	pIC50 [7]
CCc1c(C(=O)NCC2CCS(=O)(=O)C2)cnn1-c1ccc(C)cc1 (stereo unspecified)	< 4.00	–	–	–	–	–	–
COc1ccccc1C1CC(=O)Nc2nc(N3CCCCC3)sc21 (stereo unspecified)	4.66 and 4.53	< 4.30	4.26 and 4.31	5.62 and 5.87	6.64	< 4.00	–
CNc1nc2c(s1)C(c1cc(Cl)ccc1F)CC(=O)N2 (stereo unspecified)	< 4.00	< 4.30	–	4.71 and 4.69	–	< 4.00	–
O=C1CC(c2ccccc2C(F)(F)F)c2sc(N3CCOCC3)nc2N1 (stereo unspecified)	< 4.00	< 4.30	< 4.00	4.97 and 4.79	–	< 4.00	–
COc1ccc(C2CC(=O)Nc3nc(N4CCOCC4)sc32)c(OC)c1 (stereo unspecified)	< 4.00 and 4.47	< 4.30	< 4.00	5.65 and 5.55	6.64 and 6.59 and 6.55	< 4.00	–
Nc1nc2c(s1)C(c1c(F)cccc1Cl)CC(=O)N2 (stereo unspecified)	< 4.00	< 4.30	–	5.02 and 5.11	5.49 and 5.35	–	–
CNc1nc2c(s1)C(c1ccccc1Cl)CC(=O)N2 (stereo unspecified)	< 4.00	< 4.30	–	5.17 and 5.14	5.66 and 5.59 and 5.56 and 5.58	–	–
COc1cccc(C2CC(=O)Nc3nc(N4CCCCC4)sc32)c1OC (stereo unspecified)	4.64 and 4.65	< 4.30	4.09 and 4.12	5.62 and 5.38	6.37 and 6.46	< 4.00	–
O=C1CC(c2ccccc2Br)c2sc(N3CCOCC3)nc2N1 (stereo unspecified)	< 4.00	< 4.30	< 4.00 and 4.04	5.16 and 5.21	5.95 and 5.84	–	–
CC(C)Oc1ccccc1C1CC(=O)Nc2nc(N3CCOCC3)sc21 (stereo unspecified)	4.38 and 4.46	< 4.30	4.06 and 4.05	5.41 and 5.26	–	< 4.00	–
COc1ccc(OC)c(C2CC(=O)Nc3nc(N4CCOCC4)sc32)c1 (stereo unspecified)	< 4.00 and 4.47	< 4.30	< 4.00	5.46 and 5.37	6.43 and 6.50	< 4.00	–
COc1ccc(C2CC(=O)Nc3nc(N4CCOCC4)sc32)cc1 (stereo unspecified)	4.43 and < 4.00	< 4.30	< 4.00	4.96 and 5.06	5.75 and 5.61 and 5.60 and 5.68	< 4.00	–
CNc1nc2c(s1)C(c1ccc(F)cc1Cl)CC(=O)N2 (stereo unspecified)	< 4.00	< 4.30	–	4.64 and 4.80	–	–	–
CNc1nc2c(s1)C(c1cccc(Cl)c1Cl)CC(=O)N2 (stereo unspecified)	4.42 and < 4.00	< 4.30	–	4.98 and 4.95	–	–	–
CNc1nc2c(s1)C(c1ccc(Cl)cc1Cl)CC(=O)N2 (stereo unspecified)	< 4.00	< 4.30	–	4.99 and 4.97	5.34 and 5.44	–	–
CNc1nc2c(s1)C(c1ccccc1F)CC(=O)N2 (stereo unspecified)	< 4.00 and 4.03	< 4.30	–	5.24 and 5.31	5.63 and 5.65 and 5.64 and 5.60	< 4.00	–
COCCNC(=O)c1cn(C(C)(C)C)c2ncccc12	< 4.00	–	–	–	–	–	–
COCC(C)NC(=O)c1cn(C(C)(C)C)c2ncccc12 (stereo unspecified)	< 4.00	–	–	–	–	–	–
COc1cccc(C2CC(=O)Nc3nc(N4CCOCC4)sc32)c1OC (stereo unspecified)	4.98 and 5.09	< 4.30	4.07 and 4.04	5.28 and 5.35	5.92 and 6.06	–	–
CNc1nc2c(s1)C(c1cccc(F)c1F)CC(=O)N2 (stereo unspecified)	4.03 and 4.48	< 4.30	–	4.65 and 4.84	–	< 4.00	–
CNc1nc2c(s1)C(c1c(Cl)cccc1Cl)CC(=O)N2 (stereo unspecified)	4.05 and 4.36	< 4.30	–	4.67 and 4.64	4.68 and 4.76	–	–
COCCn1ccc2cc(NC(C)=O)ccc21	< 4.00	–	–	–	–	–	–
O=C(Cc1cccc(Cl)c1)N[C@@H]1CCNC[C@H]1O	–	–	–	–	–	–	< 4.00 and 4.67
Cc1ccc2c(ccn2CCC(=O)O)c1	< 4.00	–	–	–	–	–	–
